Assay results from US20220289732A1, “HETEROCYCLIC WDR5 INHIBITORS AS ANTI-CANCER COMPOUNDS” (NOVARTIS AG, priority 2019, published 2022).
pIC50: −log10 of the molar value.

Assays:
[1] = biological target: wild type MLL1 four-member complex (MLL1-4C) (Homo sapiens, UniProt P61964); experiment: MLL1 LC-MS assay (SAH production); type: biochemical; conditions: read-out: (b) MLL LCMS Peptide Val.v.1 Qualified AC50
In short: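 MLL1-4C (30 nM final) was preincubated 20 min with compound (3-fold dilutions, 8 or 12 points) and SAM in Tris-HCl pH 8.0 buffer. H3K4me0 peptide (histone H3[1-21]-biotin) was then added, giving final 2.5 μM SAM and 10 μM substrate, and reactions ran 120 min at rt. After TFA/d4-SAH quench, SAH was quantified by LC-MS/MS and IC50 fitted from control-normalised activity.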

MV4-11 cells = experiment: MV4-11 6-day cell growth CTG (CellTiter-Glo) assay; type: cell-based; conditions: Homo sapiens, MV4-11, 144 h, 6 days, read-out: (c) MLL/WDR5 cell proliferation assay//MLL/WDR5 proliferation MV4:11 Qualified AC50
In short: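 Exponentially growing MV4-11 AML cells (RPMI 1640, 10% FBS) seeded at 300 cells/well with 12-point 1:3 compound dilutions, top final concentration 50 μM. Viability read by CellTiter-Glo luminescence after 6 days at 37° C; % inhibition vs DMSO-only wells fitted to dose-response for IC50.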

WDR5 = WDR5 (Homo sapiens, UniProt P61964); experiment: WDR5 HTRF binding assay; conditions: read-out: (a) WDR5 HTRF Pep Val v.1[Inhibitor/IC50]Qualified AC50
In short: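 6 nM WDR5 and 20 nM biotin-MLL1 WIN peptide (3762-3773) were incubated with compound (12-point, 3-fold dilutions) in pH 7.5 Hepes/NaCl/DTT buffer for 20 min at rt. Streptavidin-APC plus anti-His-Eu were then added for 1 hr, with HTRF read at 665/615. IC50 was fit from control-normalized activity; the counter assay used 15 nM biotin-PEG-His peptide.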

| SMILES | AC50 [1] [nM] | AC50 (MV4-11 cells) [nM] | pIC50 (WDR5) |
| --- | --- | --- | --- |
| CCOc1cc([C@H](C)N2CCc3c(cc(CCN4C[C@@H](O)[C@H]4C)cc3-c3cn(C)nc3C(F)F)C2=O)ncc1C#N [Example 213, 6-((S)-1-(5-(3-(difluoromethyl)-1-methyl-1H-pyrazol-4-yl)-7-(2-((2R,3R)-3-hydroxy-2-methylazetidin-1-yl)ethyl)-1-oxo-3,4-dihydroisoquinolin-2(1H)-yl)ethyl)-4-ethoxynicotinonitrile] | 10 to 1000 | 10 to 1000 | > 8.00 |
| CCOc1cc([C@H](C)N2CCc3c(cc(CCN4C[C@@H](O)[C@H]4C)cc3-c3cc(N)cnc3C(F)(F)F)C2=O)ncc1C#N [Example 214] | 10 to 1000 | 10 to 1000 | > 8.00 |
| CCOc1cc([C@H](C)N2CCc3c(cc(CCN4C[C@@H](O)[C@H]4C)cc3-c3cn(C)c(=O)cc3Cl)C2=O)ncc1C#N [Example 215] | 10 to 1000 | 10 to 1000 | > 8.00 |
| CCOc1cc([C@H](C)N2CCc3c(cc(CCN4C[C@@H](O)[C@H]4C)cc3-c3cn(C)c(=O)cc3C)C2=O)ncc1C#N [Example 216] | 10 to 1000 | 10 to 1000 | > 8.00 |
| CCOc1cc([C@H](C)N2CCc3c(cc(CCN4C[C@@H](O)[C@H]4C)cc3-c3ccc(F)nc3C)C2=O)ncc1C#N [Example 217] | 10 to 1000 | 10 to 1000 | > 8.00 |
| CCOc1cc([C@H](C)N2CCc3c(cc(CCN4C[C@@H](O)[C@H]4C)cc3-c3cc(C(F)F)cnc3C)C2=O)ncc1C#N [Example 218] | 10 to 1000 | 10 to 1000 | > 8.00 |
| CCOc1cc([C@H](C)N2CCc3c(cc(CCN4C[C@@H](O)[C@H]4C)cc3-c3ccc(N)nc3C)C2=O)ncc1C#N [Example 219] | 10 to 1000 | 10 to 1000 | > 8.00 |
| CCOc1cc([C@H](C)N2CCc3c(cc(CCN4C[C@@H](O)[C@H]4C)cc3-c3cc(C)cnc3C)C2=O)ncc1C#N [Example 220] | 10 to 1000 | 10 to 1000 | > 8.00 |
| CCOc1cc([C@H](C)N2CCc3c(cc(CCN4C[C@@H](O)[C@H]4C)cc3-c3cc(C)ncc3C)C2=O)ncc1C#N [Example 221] | 10 to 1000 | 10 to 1000 | > 8.00 |
| CCOc1cc(CN2CCc3c(cc(CCN4C[C@@H](O)[C@H]4C)cc3-c3ccc(F)nc3C)C2=O)ncc1C#N [Example 222] | 10 to 1000 | 10 to 1000 | 6.00 to 8.00 |
| CCOc1cc([C@@H](C)N2CCc3c(cc(CCN4C[C@@H](O)[C@H]4C)cc3-c3cc(C)ncc3C)C2=O)ncc1C#N [Example 223] | 10 to 1000 | 10 to 1000 | 6.00 to 8.00 |
| CCOc1cc(CN2CCc3c(cc(CCN4C[C@@H](O)[C@H]4C)cc3-c3cn(C)c(=O)cc3C(F)(F)F)C2=O)ncc1C#N [Example 224] | 10 to 1000 | 10 to 1000 | 6.00 to 8.00 |
| CCOc1cc([C@H](C)N2CCc3c(cc(CCN4CC[C@@H](O)[C@H]4C)cc3-c3ccc(F)nc3C)C2=O)ncc1C#N [Example 225, 4-ethoxy-6-((S)-1-(5-(6-fluoro-2-methylpyridin-3-yl)-7-(2-((2R, 3R)-3-hydroxy-2-methylpyrrolidin-1-yl)ethyl)-1-oxo-3,4-dihydroisoquinolin-2(1H)-yl)ethyl)nicotinonitrile] | 10 to 1000 | 10 to 1000 | > 8.00 |
| CCOc1cc([C@H](C)N2CCc3c(cc(CCN4C[C@@H](O)C[C@H]4C)cc3-c3ccc(F)nc3C)C2=O)ncc1C#N [Example 226] | 10 to 1000 | 10 to 1000 | > 8.00 |
| CCOc1cc([C@H](C)N2CCc3c(cc(CCN4C[C@@H](O)C[C@@H]4C)cc3-c3ccc(F)nc3C)C2=O)ncc1C#N [Example 227] | 10 to 1000 | 1000 to 25000 | 6.00 to 8.00 |
| CCOc1cc([C@H](C)N2CCc3c(cc(CCN(C)CCO)cc3-c3cc(F)cnc3C(F)(F)F)C2=O)ncc1C#N [Example 228, (S)-4-ethoxy-6-(1-(5-(5-fluoro-2-(trifluoromethyl)pyridin-3-yl)-7-(2-((2-hydroxyethyl)(methyl)amino)ethyl)-1-oxo-3,4-dihydroisoquinolin-2(1H)-yl)ethyl)nicotinonitrile] | 10 to 1000 | 10 to 1000 | > 8.00 |

| SMILES | AC50 [1] [nM] | AC50 (MV4-11 cells) [nM] | pIC50 (WDR5) |
| --- | --- | --- | --- |
| CCOc1cc([C@H](C)N2CCc3c(cc(CCN(C)C4CC4)cc3-c3ccc(F)nc3C)C2=O)ncc1C#N [Example 229] | 10 to 1000 | 10 to 1000 | > 8.00 |
| CCOc1cc([C@H](C)N2CCc3c(cc(CCN(C)CCO)cc3-c3cc(N)cnc3C(F)(F)F)C2=O)ncc1C#N [Example 230] | 10 to 1000 | 10 to 1000 | > 8.00 |
| CCOc1cc(C(C)N2CCc3c(cc(CCN(C)C4COC4)cc3-c3ccc(F)nc3C)C2=O)ncc1C#N (stereo not drawn) [Example 231] | 10 to 1000 | 10 to 1000 | > 8.00 |
| CCOc1cc([C@H](C)N2CCc3c(cc(CCN(C)CCOC)cc3-c3cc(C)ncc3C)C2=O)ncc1C#N [Example 232] | 10 to 1000 | 10 to 1000 | > 8.00 |
| CCOc1cc(C(C)N2CCc3c(cc(CCN(C)CCOC)cc3-c3cn(C)c(=O)cc3Cl)C2=O)ncc1C#N (stereo not drawn) [Example 233] | 10 to 1000 | 10 to 1000 | > 8.00 |
| CCOc1cc([C@H](C)N2CCc3c(cc(CCN(C)CCOC)cc3-c3ccc(F)nc3C)C2=O)ncc1C#N [Example 234] | 10 to 1000 | 10 to 1000 | > 8.00 |
| CCOc1cc([C@H](C)N2CCc3c(cc(CCN4CC[C@H]4C)cc3-c3ccc(F)nc3C)C2=O)ncc1C#N [Example 235] | 10 to 1000 | 10 to 1000 | > 8.00 |
| CCOc1cc(C(C)N2CCc3c(cc(CCN(C)CCF)cc3-c3ccc(F)nc3C)C2=O)ncc1C#N (stereo not drawn) [Example 236] | 10 to 1000 | 10 to 1000 | > 8.00 |
| CCOc1cc(C(C)N2CCc3c(cc(CCN(C)CCF)cc3-c3cn(C)c(=O)cc3Cl)C2=O)ncc1C#N (stereo not drawn) [Example 237] | 10 to 1000 | 10 to 1000 | > 8.00 |
| CCOc1cc([C@H](C)N2CCc3c(cc(CCN(C)CCO)cc3-c3cn(C)c(=O)cc3Cl)C2=O)ncc1C#N [Example 238] | 10 to 1000 | 10 to 1000 | > 8.00 |
| CCOc1cc([C@H](C)N2CCc3c(cc(CCN(C)CC(C)O)cc3-c3cn(C)c(=O)cc3Cl)C2=O)ncc1C#N (stereo partly drawn) [Example 239] | 10 to 1000 | 10 to 1000 | > 8.00 |
| CCOc1cc([C@H](C)N2CCc3c(cc(CCN(C)CCOC)cc3-c3cn(C)c(=O)cc3Cl)C2=O)ncc1C#N [Example 240] | 10 to 1000 | 10 to 1000 | > 8.00 |
| CCOc1cc(C(C)N2CCc3c(cc(CCN(C)CCF)cc3-c3cn(C)nc3C)C2=O)ncc1C#N (stereo not drawn) [Example 241] | 10 to 1000 | 10 to 1000 | 6.00 to 8.00 |
| CCOc1cc([C@H](C)N2CCc3c(cc(CCN(C)CC(C)O)cc3-c3ccc(F)nc3C)C2=O)ncc1C#N (stereo partly drawn) [Example 242] | 10 to 1000 | 10 to 1000 | 6.00 to 8.00 |
| CCOc1cc([C@H](C)N2CCc3c(cc(CCN4CC[C@H]4CO)cc3-c3ccc(F)nc3C)C2=O)ncc1C#N [Example 243] | 10 to 1000 | 10 to 1000 | 6.00 to 8.00 |
| CCOc1cc([C@H](C)N2CCc3c(cc(CCN4C[C@@H](OC)[C@H]4C)cc3-c3ccc(F)nc3C)C2=O)ncc1C#N [Example 244] | 10 to 1000 | 10 to 1000 | 6.00 to 8.00 |
